# Data as given in paper PMC12351382, “Fibrinography and thrombography (thrombodynamics-4D) in atrial fibrillation assessment of direct oral anticoagulants in geriatrics patients aged 80 years and older receiving direct oral anticoagulant therapy” (Research and Practice in Thrombosis and Haemostasis, 2025).
# Legend:
# [1] = Plasma DOAC concentration in ADAGE patients (chromogenic anti-FXa assay for rivaroxaban and apixaban; anti-FIIa Hemoclot assay for dabigatran); format: in vivo, human; conditions: for DOAC concentration, median (IQR): ADAGE patients ≥80 y, reduced dose: rivaroxaban 15 mg once daily, apixaban 2.5 mg twice daily, dabigatran 110 mg twice daily; for DOAC concentration, range: ADAGE patients, reduced dose (regimens as E1)
# Source text: (§1) ADAGE is an academic, prospective, observational multicenter study (NCT 02464488; for details, see Foulon-Pinto et al.). We recruited hospitalized patients from the university hospital’s geriatric department (Assistance Publique-Hôpitaux de Paris, Paris, France). […] The DOAC dose regimen was at the discretion of the physician. Exclusion criteria included any acute, unstable comorbid condition or an estimated life expectancy of a few weeks. Sampling (see below) and last DOAC intake times were recorded on a standardized request form. Sampling time points were at the discretion of the physicians over a period of 20 days following inclusion. Time points were classified according to the time elapsed from the last oral intake (T, hours) for patients receiving rivaroxaban. T1 to T4 corresponded to peak time (Tmax), and T20 to T24 corresponded to trough (Tmin). […] Physicians prospectively collected demographic, clinical, and laboratory data (including creatinine clearance [CrCl] calculated with the Cockcroft–Gault formula). The study was approved by the institutionnel Ethics Committee (Comité consultatif de protection des personnes pour la recherche biomédicale–Île-de-France-6–number 15.074bis). All participants gave written informed consent to participate in the study. Only patients for whom remaining plasma aliquots were available were included in the present study.
# (§2) Tubes were sent to each centre’s laboratory within 2 hours after sampling and immediately double-centrifuged for 15 minutes at 2000 × g at 15 to 22 °C to obtain platelet-poor plasma. Plasma samples (500 μL aliquots) were stored at −80 °C prior to shipment on dry ice for central analysis (Haematology Laboratory, Hôpital Lariboisière). Plasma samples were thawed for 3 to 5 minutes in a 37 °C water bath just before testing.
# Dedicated calibrations and controls were used. The lower limit of quantification was 20 ng/mL for the 3 assays.
# fibrin clot formation [2] = assay: Thrombodynamics-4D fibrinography in plasma samples from ADAGE patients on DOACs; format: in vivo, human; conditions: for CS (clot size at 30 minutes), median (IQR) / CS (clot size at 30 minutes), range / D (clot density), median (IQR) / D (clot density), range / Fibrinography Tlag (lag time), median (IQR) / Fibrinography Tlag (lag time), range / Initial rate of clot growth (Vi), median (IQR) / Initial rate of clot growth (Vi), range / Time to Tsp (spontaneous clotting), median (IQR) / Time to Tsp (spontaneous clotting), range: ADAGE patients, reduced dose (regimens as E1)
# Source text: as §1, §2
# (§3) The TD-4D assay was performed centrally using the Thrombodynamics analyzer system (Hemacore, Diapharma) with the TD-4D PLS dedicated kit (Hemacore, Diapharma). The system simultaneously measures spatiotemporal parameters of fibrin clot formation (fibrinography) and TG process (thrombography) in a thin layer of unstirred plasma. Briefly, 120 μL of platelet-poor plasma is added to a microcuvette containing corn trypsin inhibitor to prevent contribution of contact phase activation, then 5 μL of phospholipid solution (manufacturer’s reagent) is added. After incubation for 15 minutes at 37 °C in the Thrombodynamics device, the mixture is transferred to a second microcuvette containing calcium ions, and then immediately transferred to the measurement cuvette. Finally, the activator insert, whose surface is coated with immobilized tissue factor (100 pmol/m^2), is then transferred to the cuvette. The process of fibrin clot formation is recorded in a time-lapse video-microscopy mode using a dark-field light scattering method. Simultaneously, the system monitors TG by fluorimetry, based on the ability of thrombin to cleave a fluorogenic substrate, 7-amino-4-methylcoumarin (AMC) bound to a short amino acid sequence (Arg-Gly-Gly). The rate of AMC formation is proportional to local thrombin concentration. The microcuvette is maintained at 37 °C and is illuminated with red (625 nm) or ultra-violet (365 nm) light emitting diodes. Clot growth is detected with red light scattering, while AMC fluorescence is detected with UV. Scattered red light and fluorescence passing through the macro lens are recorded by a charge-coupled device system. Images under red and blue light are acquired once per minute. The whole analysis lasts 1 hour. The Thrombodynamics software (Hemacore, Diapharma) calculates parameters of spatiotemporal dynamics of fibrin clot formation and TG [40, 46]. […]
# fibrin clot formation [3] = assay: Thrombodynamics-4D fibrinography in pooled normal plasma (Cryocheck) spiked with DOACs; format: biochemical, human; conditions: 0 to 1000 nM, mainly at low DOAC concentrations
# Protocol: (§4) Frozen pooled normal plasma samples (Cryocheck-Cryopep) were spiked with increasing concentrations of DOACs (0-450 ng/mL), as previously described. […] were kindly provided by Bristol Myers Squibb/Pfizer, Bayer Healthcare, and Boehringer Ingelheim, respectively.
# The TD-4D assay was performed centrally using the Thrombodynamics analyzer system (Hemacore, Diapharma) with the TD-4D PLS dedicated kit (Hemacore, Diapharma). The system simultaneously measures spatiotemporal parameters of fibrin clot formation (fibrinography) and TG process (thrombography) in a thin layer of unstirred plasma. Briefly, 120 μL of platelet-poor plasma is added to a microcuvette containing corn trypsin inhibitor to prevent contribution of contact phase activation, then 5 μL of phospholipid solution (manufacturer’s reagent) is added. […] The process of fibrin clot formation is recorded in a time-lapse video-microscopy mode using a dark-field light scattering method. […] Clot growth is detected with red light scattering, while AMC fluorescence is detected with UV. Scattered red light and fluorescence passing through the macro lens are recorded by a charge-coupled device system. […]
# (§5) The following fibrinography parameters were recorded (see Supplementary Table 1): (i) lag time (Tlag, minutes); (ii) initial rate of clot growth (Vi, μm/min); (iii) rate of clot growth (V, μm/min); (iv) clot size (CS, μm) measured at 30 minutes; (v) clot density (D, arbitrary units); (vi) time to spontaneous clotting (Tsp, minutes). The following thrombography parameters (at the near-activator area) were recorded (see Supplementary Table 1): (i) Tlag (minutes); (ii) time to thrombin peak (minutes); (iii) maximal thrombin concentration (ie, thrombin peak height, Cmax_ATG, AU/L); (iv) endogenous thrombin potential (ETP_ATG, AU⋅min/L); (v) stationary amplitude of moving peak of thrombin (Ast, AU/L); (vi) rate of thrombin peak propagation (μm/min; see Supplementary Videos 1–3).
# thrombin generation [4] = assay: Thrombodynamics-4D thrombography in plasma samples from ADAGE patients on DOACs; format: in vivo, human; conditions: for ETP (endogenous thrombin potential, ETP_ATG), median (IQR) / ETP (endogenous thrombin potential, ETP_ATG), range / Thrombin peak height (Cmax_ATG), median (IQR) / Thrombin peak height (Cmax_ATG), range / Thrombography Tlag (Lag_ATG), median (IQR) / Thrombography Tlag (Lag_ATG), range / Time to peak (Tmax_ATG), median (IQR) / Time to peak (Tmax_ATG), range: ADAGE patients, reduced dose (regimens as E1)
# Source text: as §1, §2, §3
# thrombin generation [5] = assay: Thrombodynamics-4D thrombography in pooled normal plasma (Cryocheck) spiked with DOACs; format: biochemical, human
# Protocol: as §4
# as §3, with “minute.” for “minute. The whole analysis lasts 1 hour. The Thrombodynamics software (Hemacore, Diapharma) calculates parameters of spatiotemporal dynamics of fibrin clot formation and TG [40, 46].”
# as §5
# [6] = all ADAGE patient samples, any time point and dose
# [7] = all ADAGE patient samples, Spearman
# [8] = univariate analysis, Tmax, line marked Halving
# [9] = univariate analysis, Tmin, line marked Halving
smiles,measurement,setting,value
O=C(NC[C@H]1CN(c2ccc(N3CCOCC3=O)cc2)C(=O)O1)c1ccc(Cl)s1 [Rivaroxaban],"DOAC concentration, median (IQR)",[1]; Tmax (peak),248 (181-397) ng/mL
same,"DOAC concentration, range",[1]; Tmax (peak),64 to 676 ng/mL
same,"DOAC concentration, median (IQR)",[1]; Tmin (trough),42 (27-69) ng/mL
same,"DOAC concentration, range",[1]; Tmin (trough),20 to 149 ng/mL
same,"DOAC plasma concentration, lower end of range",[1]; [6],< 20 ng/mL
same,"DOAC plasma concentration, upper end of range",[1]; [6],676 ng/mL
same,"CS (clot size at 30 minutes), median (IQR)",fibrin clot formation [2]; Tmax (peak),1236 (1112-1393) μm
same,"CS (clot size at 30 minutes), range",fibrin clot formation [2]; Tmax (peak),1019-1759 μm
same,"D (clot density), median (IQR)",fibrin clot formation [2]; Tmax (peak),"23,230 (20,060-28,420) a.u."
same,"D (clot density), range",fibrin clot formation [2]; Tmax (peak),"14,690-33,710 a.u."
same,"Fibrinography Tlag (lag time), median (IQR)",fibrin clot formation [2]; Tmax (peak),2.0 (1.7-2.6) min
same,"Fibrinography Tlag (lag time), range",fibrin clot formation [2]; Tmax (peak),1.3 to 4.7 min
same,"Initial rate of clot growth (Vi), median (IQR)",fibrin clot formation [2]; Tmax (peak),60.6 (56.2-65.3) μm/min
same,"Initial rate of clot growth (Vi), range",fibrin clot formation [2]; Tmax (peak),45.0-84.6 μm/min
same,"Time to Tsp (spontaneous clotting), median (IQR)",fibrin clot formation [2]; Tmax (peak),18.5 (11.4-31.6) min
same,"Time to Tsp (spontaneous clotting), range",fibrin clot formation [2]; Tmax (peak),7.7 to 58.1 min
same,"CS (clot size at 30 minutes), median (IQR)",fibrin clot formation [2]; Tmin (trough),1691 (1632-1734) μm
same,"CS (clot size at 30 minutes), range",fibrin clot formation [2]; Tmin (trough),1276-2029 μm
same,"D (clot density), median (IQR)",fibrin clot formation [2]; Tmin (trough),"23,940 (20,550-30,160) a.u."
same,"D (clot density), range",fibrin clot formation [2]; Tmin (trough),"18,160-37,370 a.u."
same,"Fibrinography Tlag (lag time), median (IQR)",fibrin clot formation [2]; Tmin (trough),1.2 (1.0-1.4) min
same,"Fibrinography Tlag (lag time), range",fibrin clot formation [2]; Tmin (trough),0.8 to 2.1 min
same,"Initial rate of clot growth (Vi), median (IQR)",fibrin clot formation [2]; Tmin (trough),70.4 (64.9-75.8) μm/min
same,"Initial rate of clot growth (Vi), range",fibrin clot formation [2]; Tmin (trough),56.5-87.1 μm/min
same,"Time to Tsp (spontaneous clotting), median (IQR)",fibrin clot formation [2]; Tmin (trough),10.9 (7.1-23.1) min
same,"Time to Tsp (spontaneous clotting), range",fibrin clot formation [2]; Tmin (trough),3.2 to 42.3 min
same,Change of CS (clot size) with increasing concentrations,fibrin clot formation [2]; all ADAGE patient samples,decreased
same,Association of D (clot density) with DOAC concentration,fibrin clot formation [2]; [7],not
same,Relationship between time to spontaneous clot formation (Tsp) and DOAC levels,fibrin clot formation [2]; [7],no relationship
same,Effect of DOAC concentration at Tmax (βC.pic) on fibrinography initial velocity of clot formation,fibrin clot formation [2]; [8],≈ −0.001769%
same,Effect of DOAC concentration at Tmin (βC.res) on fibrinography initial velocity of clot formation,fibrin clot formation [2]; [9],≈ 0.08094%
same,Samples in which spontaneous clotting occurred,fibrin clot formation [3],14%
same,"ETP (endogenous thrombin potential, ETP_ATG), median (IQR)",thrombin generation [4]; Tmax (peak),1391 (1176-1774) AU⋅min/L
same,"ETP (endogenous thrombin potential, ETP_ATG), range",thrombin generation [4]; Tmax (peak),601-2371 AU⋅min/L
same,"Thrombin peak height (Cmax_ATG), median (IQR)",thrombin generation [4]; Tmax (peak),203 (140-268) AU/L
same,"Thrombin peak height (Cmax_ATG), range",thrombin generation [4]; Tmax (peak),64-371 AU/L
same,"Thrombography Tlag (Lag_ATG), median (IQR)",thrombin generation [4]; Tmax (peak),1.1 (0.8-1.5) min
same,"Thrombography Tlag (Lag_ATG), range",thrombin generation [4]; Tmax (peak),0.6 to 3.9 min
same,"Time to peak (Tmax_ATG), median (IQR)",thrombin generation [4]; Tmax (peak),3.1 (2.6-3.8) min
same,"Time to peak (Tmax_ATG), range",thrombin generation [4]; Tmax (peak),2.6 to 7.1 min
same,"ETP (endogenous thrombin potential, ETP_ATG), median (IQR)",thrombin generation [4]; Tmin (trough),1832 (1322-2480) AU⋅min/L
same,"ETP (endogenous thrombin potential, ETP_ATG), range",thrombin generation [4]; Tmin (trough),557-3572 AU⋅min/L
same,"Thrombin peak height (Cmax_ATG), median (IQR)",thrombin generation [4]; Tmin (trough),289 (254-422) AU/L
same,"Thrombin peak height (Cmax_ATG), range",thrombin generation [4]; Tmin (trough),132- 544 AU/L
same,"Thrombography Tlag (Lag_ATG), median (IQR)",thrombin generation [4]; Tmin (trough),0.2 (0.1-0.4) min
same,"Thrombography Tlag (Lag_ATG), range",thrombin generation [4]; Tmin (trough),0.1 to 0.9 min
same,"Time to peak (Tmax_ATG), median (IQR)",thrombin generation [4]; Tmin (trough),2.1 (1.6-2.1) min
same,"Time to peak (Tmax_ATG), range",thrombin generation [4]; Tmin (trough),1.6 to 3.1 min
same,Change of ETP_ATG with increasing DOAC plasma concentrations,thrombin generation [4]; all ADAGE patient samples,decreased
same,Effect of DOAC concentration at Tmax (βC.pic) on thrombography peak height (PH),thrombin generation [4]; [8],≈ 0.1032%
same,Effect of DOAC concentration at Tmin (βC.res) on thrombography peak height (PH),thrombin generation [4]; [9],≈ 0.238%
same,Change of Ast (stationary amplitude of thrombin moving peak) with increasing concentrations,thrombin generation [5],not
